Patent publication US7223759B2, “Antibacterial 3,5-diaminopiperidine-substituted aromatic and heteroaromatic compounds” (Anadys Pharmaceuticals, Inc., priority 2003, dated 2007)
Read-outs that look alike come from different tables or passages of the source.

Tested on: Escherichia coli (ATCC25922) or Staphylococcus aureus (ATCC25923)
Assay: Antibacterial MIC, microdilution method in Mueller-Hinton medium
Assay type: cell-based
Conditions: Escherichia coli, 18 h, read-out: Potency (MIC)
Procedure, shortened: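 Two-fold serial dilutions from 64 to 0.5 μg/ml, in duplicate, by broth microdilution in Mueller-Hinton medium (NCCLS M7-A5). MIC taken as the lowest concentration preventing visible growth after 18 h at 35° C.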

[1] = MIC in E. coli or S. aureus, two-fold serial dilutions 64 to 0.5 μg/ml in duplicate, 18 hours of incubation at 35° C.

Row | SMILES | MIC [µg/mL] | MIC [1] [µg/mL]
1 | NC[C@@H]1C[C@@H](O)CN1c1nc(Nc2ccc(NC(=O)c3ccc4ccccc4c3O)cc2)nc(N2C[C@H](N)C[C@H](N)C2)n1 [1-Hydroxy-naphthalene-2-carboxylicacid {4-[4-((2S,4R)-2-aminomethyl-4-hydroxy-pyrrolidin-1-yl)-6-((3R,5S)-3,5-diamino-piperidin-1-yl)-[1,3,5]triazin-2-ylamino]-phenyl}-amide] | < 64 | –
2 | Cc1ccc(C(=O)Nc2ccc(Nc3nc(N4CCN(c5ccncc5)CC4)nc(N4C[C@H](N)C[C@H](N)C4)n3)cc2O)cc1 [N-{4-[4-((3R,5S)-3,5-Diamino-piperidin-1-yl)-6-(4-pyridin-4-yl-piperazin-1-yl)-[1,3,5]triazin-2-ylamino]-2-hydroxy-phenyl}-4-methyl-benzamide] | – | < 64
3 | CC(=O)Nc1ccc(Nc2nc(N3C[C@H](N)C[C@H](N)C3)nc(N3C[C@H](N)C[C@H](N)C3)n2)cc1 [drawing 178, N-(4-acetylamino-phenyl)-4,6-Bis-((3R,5S)-3,5-diamino-piperidin-1-yl)-[1,3,5]triazine-2-amine] | – | > 64
4 | Cc1ccc(C(=O)Nc2ccc(Nc3nc(N4CC(N)C4)nc(N4C[C@H](N)C[C@H](N)C4)n3)cc2O)cc1.Cl [N-{4-[4-(3-Amino-azetidin-1-yl)-6-((3R,5S)-3,5-diamino-piperidin-1-yl)-[1,3,5]triazin-2-ylamino]-2-hydroxy-phenyl}-4-methyl-benzamide] | – | < 64
5 | COc1ccc(NC(=O)c2ccc(Cl)cc2O)c(Nc2nc(N3CCCCC3)nc(N3CCCCC3)n2)c1.Cl [BN-[2-(4-chloro-2-hydroxy-benzoylamino)-5-methoxy-phenyl]-4,6-Bis-((3R,5S)-3,5-diamino-piperidin-1-yl)-[1,3,5]triazine-2-amine] | – | > 64
6 | COc1ccc(OC)c(NC(=O)CC(=O)c2ccc(Nc3nc(N4C[C@H](N)C[C@H](N)C4)nc(N4C[C@H](N)C[C@H](N)C4)n3)cc2)c1 [N-{4-[2-(2,5-dimethoxy-phenylcarbamoyl)-acetyl]-phenyl}-4,6-Bis-((3R,5S)-3,5-diamino-piperidin-1-yl)-[1,3,5]triazine-2-amine] | < 64 | –
7 | Cl.O=C(Oc1ccccc1)c1ccc(Nc2cc(N3CCCCC3)cc(N3CCCCC3)c2)cc1O [4-[4-((3S,5R)-3,5-Diamino-piperidin-1-yl)-6-((R)-3-hydroxy-piperidin-1-yl)-[1,3,5]triazin-2-ylamino]-2-hydroxy-benzoicacidphhenylester] | – | < 64
8 | Cc1ccc(C(=O)Nc2ccc(Nc3nc(N4C[C@H](N)C[C@H](N)C4)nc(N4C[C@H](N)C[C@H](N)C4)n3)cc2O)c(O)c1 [N-[3-hydroxy-4-(2-hydroxy-4-methyl-benzoylamino)-phenyl]-4,6-Bis-((3R,5S)-3,5-diamino-piperidin-1-yl)-[1,3,5]triazine-2-amine] | – | < 16
9 | N[C@@H]1C[C@H](N)CN(c2nc(Nc3ccc(C(=O)c4ccccc4)cc3)nc(N3C[C@H](N)C[C@H](N)C3)n2)C1 [N-(4-benzoyl-phenyl)-4,6-Bis-((3R,5S)-3,5-diamino-piperidin-1-yl)-[1,3,5]triazine-2-amine] | < 64 | –
10 | N[C@@H]1C[C@H](N)CN(c2nc(Nc3ccc(NC(=O)CO)cc3)nc(N3C[C@H](N)C[C@H](N)C3)n2)C1 [N-[4-(2-hydroxy-acetylamino)-phenyl]-4,6-Bis-((3R,5S)-3,5-diamino-piperidin-1-yl)-[1,3,5]triazine-2-amine] | > 64 | –
11 | C=CCOC1OC(CO)C(O)C(O)C1Nc1nc(N2C[C@H](N)C[C@H](N)C2)nc(N2C[C@H](N)C[C@H](N)C2)n1.Cl (stereo partly drawn) [N-(2-allyloxy-4,5-dihydroxy-6-hydroxymethyl-tetrahydro-pyran-3-yl)-4,6-Bis-((3R,5S)-3,5-diamino-piperidin-1-yl)-[1,3,5]triazine-2-amine] | – | > 64
12 | Cc1cc(=O)oc2cc(Nc3nc(N(CCN)CCN)nc(N4C[C@H](N)C[C@H](N)C4)n3)ccc12 [7-[4-[Bis-(2-amino-ethyl)-amino]-6-((3R,5S)-3,5-diamino-piperidin-1-yl)-[1,3,5]triazin-2-ylamino]-4-methyl-chromen-2-one] | > 64 | –
13 | COc1cccc(OC)c1CNc1nc(N2C[C@H](N)C[C@H](N)C2)nc(N2C[C@H](N)C[C@H](N)C2)n1 [N-(2,6-dimethoxy-benzyl)-4,6-Bis-((3R,5S)-3,5-diamino-piperidin-1-yl)-[1,3,5]triazine-2-amine] | > 64 | –
14 | Cc1noc(NS(=O)(=O)c2ccc(Nc3nc(N4C[C@H](N)C[C@H](N)C4)nc(N4C[C@H](N)C[C@H](N)C4)n3)cc2)c1C [N-[4-(3,4-dimethyl-isoxazol-5-ylsulfamoyl)-phenyl]-4,6-Bis-((3R,5S)-3,5-diamino-piperidin-1-yl)-[1,3,5]triazine-2-amine] | > 64 | –
15 | N[C@@H]1C[C@H](N)CN(c2nc(Nc3ccc(NC(=O)c4ccc(N5Cc6ccccc6C5)cc4O)c(Cl)c3)nc(N3C[C@H](N)C[C@H](N)C3)n2)C1 [N-{3-chloro-4-[4-(1,3-dihydro-isoindol-2-yl)-2-hydroxy-benzoylamino]-phenyl}-4,6-Bis-((3R,5S)-3,5-diamino-piperidin-1-yl)-[1,3,5]triazine-2-amine] | < 16 | –
16 | NC[C@@H]1C[C@H](N)CN1c1nc(Nc2ccc(NC(=O)c3ccc(Cl)cc3)c(O)c2)nc(N2C[C@H](N)C[C@H](N)C2)n1 [N-{4-[4-((2S,4S)-4-Amino-2-aminomethyl-pyrrolidin-1-yl)-6-((3R,5S)-3,5-diamino-piperidin-1-yl)-[1,3,5]triazin-2-ylamino]-2-hydroxy-phenyl}-4-chloro-benzamide] | < 16 | –
17 | NC[C@@H]1C[C@H](N)CN1c1nc(Nc2ccc(S(=O)(=O)Nc3ccc4cn[nH]c4c3)cc2)nc(N2C[C@H](N)C[C@H](N)C2)n1 [4-[4-((2S,4S)-4-Amino-2-aminomethyl-pyrrolidin-1-yl)-6-((3R,5S)-3,5-diamino-piperidin-1-yl)-[1,3,5]triazin-2-ylamino]-N-(1H-indazol-6-yl)-benzenesulfonamide] | > 64 | –
18 | N[C@@H]1C[C@H](N)CN(c2cc(Nc3ccc(NC(=O)c4ccc5ccccc5c4O)cc3)nc(N3C[C@H](N)C[C@H](N)C3)c2)C1 [1-Hydroxy-naphthalene-2-carboxylic acid [4-(4,6-Bis-((3R,5S)-3,5-diamino-piperidin-1-yl)-pyridin-2-ylamino)-phenyl]-amide] | < 16 | –
19 | N[C@@H]1C[C@H](N)CN(c2nc(Nc3ccc(C(=O)Nc4ccc(Cl)c(Cl)c4)c(O)c3)nc(N3C[C@H](N)C[C@H](N)C3)n2)C1 [N-[4-(3,4-dichloro-phenylcarbamoyl)-3-hydroxy-phenyl]-4,6-Bis-((3R,5S)-3,5-diamino-piperidin-1-yl)-[1,3,5]triazine-2-amine] | < 16 | –
20 | Cc1ccc(C(=O)Nc2ccc(Nc3nc(N(CCN)CCN)nc(N4CCCCC4)n3)cc2O)cc1.Cl [N-{4-[4-[Bis-(2-amino-ethyl)-amino]-6-((3R,5S)-3,5-diamino-piperidin-1-yl-[1,3,5]triazin-2-ylamino]-2-hydroxy-phenyl}-4-methyl-benzamide] | – | < 64
21 | N[C@@H]1C[C@H](N)CN(c2nc(Nc3cccc(OC(F)(F)F)c3)nc(N3C[C@H](N)C[C@H](N)C3)n2)C1 [N-(3-trifluoromethoxy-phenyl)-4,6-Bis-((3R,5S)-3,5-diamino-piperidin-1-yl)-[1,3,5]triazine-2-amine] | – | > 64
22 | N[C@@H]1C[C@H](N)CN(c2nc(Nc3ccc(C(=O)Nc4ccc(-c5ccccc5)cc4)c(O)c3)nc(N3C[C@H](N)C[C@H](N)C3)n2)C1 [N-[4-(biphenyl-4-ylcarbamoyl)-3-hydroxy-phenyl]-4,6-Bis-((3R,5S)-3,5-diamino-piperidin-1-yl)-[1,3,5]triazine-2-amine] | < 16 | –
23 | Cc1ccc(C(=O)Nc2ccc(Nc3nc(N4C[C@H](N)C[C@H](N)C4)nc(N4CCC[C@@H](O)C4)n3)cc2O)cc1 [N-{4-[4-((3R,5S)-3,5-Diamino-piperidin-1-yl)-6-((R)-3-hydroxy-piperidin-1-yl)-[1,3,5]triazin-2-ylamino]-2-hydroxy-phenyl}-4-methyl-benzamide] | > 64 | –
24 | COC(=O)c1ccc(Nc2nc(N3CCCCC3)nc(N3CCCCC3)n2)c(O)c1 [44-[4,6-Bis-((3R,5S)-3,5-diamino-piperidin-1-yl)-[1,3,5]triazin-2-ylamino]-3-hydroxy-benzoic acidmethyl ester] | – | > 64
25 | N[C@@H]1C[C@H](N)CN(c2nc(Nc3cccc([N+](=O)[O-])c3)nc(N3C[C@H](N)C[C@H](N)C3)n2)C1 [N-(3-nitro-phenyl)-4,6-Bis-((3R,5S)-3,5-diamino-piperidin-1-yl)-[1,3,5]triazine-2-amine] | > 64 | –
26 | O=S(=O)(Nc1ccc2cn[nH]c2c1)c1ccc(Nc2nc(N3CCCCC3)nc(N3CCN(c4ccncc4)CC3)n2)cc1 [4-[4-((3S,5R)-3,5-DSiamino-piperidin-1-yl)-6-(4-pyridin-4-yl-piperazin-1-yl)-[1,3,5]triazin-2-ylamino]-N-(1H-indazol-6-yl)-benzenesulfonamide] | – | < 64
27 | N[C@@H]1C[C@H](N)CN(c2nc(NCCN3CCNC3=O)nc(Nc3ccc(NC(=O)c4ccc(Cl)cc4)c(O)c3)n2)C1 [4-Chloro-N-{4-[4-((3S,5R)-3,5-diamino-piperidin-1-yl)-6-[2-(2-oxo-imidazolidin-1-yl)-ethylamino]-[1,3,5]triazin-2-ylamino}-2-hydroxy-phenyl)-benzamide] | – | < 64
28 | COc1ccc(NC(=O)c2cccc(C)c2O)c(Nc2nc(N3C[C@H](N)C[C@H](N)C3)nc(N3C[C@H](N)C[C@H](N)C3)n2)c1 [N-[2-(2-hydroxy-3-methyl-benzoylamino)-5-methoxy-phenyl]-4,6-Bis-((3R,5S)-3,5-diamino-piperidin-1-yl)-[1,3,5]triazine-2-amine] | > 64 | –
29 | N[C@@H]1C[C@H](N)CN(c2nc(Nc3ccc(NC(=O)c4ncccc4O)cc3)nc(N3C[C@H](N)C[C@H](N)C3)n2)C1 [N-{4-[(3-hydroxy-pyridine-2-carbonyl)-amino]-phenyl}-4,6-Bis-((3R,5S)-3,5-diamino-piperidin-1-yl)-[1,3,5]triazine-2-amine] | < 64 | –
